From patent publication US20040157913A1, “Kappa opiate agonists for the treatment of bladder diseases” (priority 2001, published 2004)

What was measured:
Format in all cases: in vivo
[1] = Urine excretion in normal rats (without induction of increased urine excretion); details: no saline induction, dose 30 mg/kg po, increase as a function of dose
Description: (§1) A model for measuring the effect on urine excretion is described in Lipschitz et al., J. Pharmacol. Exp. Ther. 1943; 79: 97-110. The substance to be investigated is given to rats who had previously been denied food overnight while being given free access to water. Increased urine excretion is provoked by simultaneous intraperitoneal injection of 100 ml/kg of physiological saline solution. Immediately after administration of the substance, the bladder was emptied by gentle massage of the abdomen above the bladder. The rats are subsequently kept in metabolism cages in which the urine is collected over a period of 6 hours.
The effect on urine excretion in normal rats is tested analogously (i.e. without induction of increased urine excretion, see above). N-Methyl-N-[(1S)-1-phenyl-2-((3S)-3-hydroxypyrrolidin-1-yl)ethyl]-2,2-diphenylacetamide increases urine excretion as a function of dose, with 5.5 times the amount of urine being excreted at only 30 mg/kg po.

[2] = tested on: irritable bladder in female apes; assay: Animal model for irritable bladder induced by direct infusion of acetone into the bladder (Ghoniem et al.); details: doses of 3, 10 and 30 mg/kg
Description: The classical animal model for irritable bladder is described in Ghoniem et al., Neurourol. Urodyn. 1995; 14: 657-65. In female apes, irritable bladder is induced by direct infusion of acetone into the bladder. The animals are kept in metabolism cages designed for continuous monitoring of miction (urination) of the animals. The frequency, emptying volumes and flow rate of the urine are measured continuously via urine flow meters. […] Furthermore, considerable changes in bladder physiology are observed in the first week after acetone infusion: the bladder performance, measured in ml/cm, drops by almost 95%. The emptying behaviour also changes considerably, with the frequency of emptying increasing greatly with the picture of frequent dribbling and at the same time with an emptying volume reduced by about 70%. […] These changes in behaviour observed in apes are consistent with the clinical picture of considerable discomfort and pain.

[3] = Urine excretion in rats with increased urine excretion provoked by intraperitoneal saline (Lipschitz model); details: rats fasted overnight, 100 ml/kg physiological saline i.p., urine collected over 6 hours, dose 100 mg/kg; increase as a function of dose
Description: as §1

With `CN(C(=O)C(c1ccccc1)c1ccccc1)[C@H](CN1CC[C@H](O)C1)c1ccccc1` [N-methyl-N-[(1S)-1-phenyl-2-((3S)-3-hydroxypyrrolidin-1-yl)ethyl]-2,2-diphenylacetamide] the “amount of urine excreted (multiple)” value [1] was 5.5 times, the “effect on bladder function” value [2] was “normalises bladder function in a dose-dependent manner” and the “amount of urine excreted (multiple)” value [3] was “twice the amount of urine”.
